Reference: patent US10315996B2, “ROR gamma (RORγ) modulators” (LEAD PHARMA HOLDING B.V., priority 2015, dated 2019)

What follows are molecules tested against T1, RORγ (Homo sapiens, UniProt P51449) (assay: RORγ GAL4 reporter gene assay). Conditions: inhibition of RORγ activity, GAL4-RORγ-LBD luciferase reporter in 293FT cells, overnight incubation; read-out: mean pIC50 (converted).
T1 construct: expressed in transfected cells; host or cells: 293FT cells (Invitrogen), expression vector pFN26A (Promega)
T1 sequence (P51449 269-508 limits assumed): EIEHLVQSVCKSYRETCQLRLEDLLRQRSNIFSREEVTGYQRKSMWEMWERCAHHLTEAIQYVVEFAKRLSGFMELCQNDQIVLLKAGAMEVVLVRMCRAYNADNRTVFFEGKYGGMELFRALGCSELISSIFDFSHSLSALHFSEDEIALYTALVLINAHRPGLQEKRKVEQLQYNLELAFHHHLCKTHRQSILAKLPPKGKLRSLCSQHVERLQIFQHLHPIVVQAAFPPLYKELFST
Format: cell-based
Experimental: Example inhibitors 1-166 were tested for their ability to inhibit RORγ activity in a RORγ GAL4 reporter gene assay. The assay procedure and results are described below.
RORγ GAL4 Reporter Gene Assay Description
A GAL4 one-hybrid reporter system employing luciferase readout was established to determine inhibition of RORγ in 293FT cells. The RORγ ligand-binding domain (LBD) was fused to the yeast GAL4 DNA binding domain (DBD) and placed under the control of the human cytomegalovirus (CMV) immediate early promoter, using expression vector pFN26A (Promega) and standard recombinant DNA cloning methods. To serve as a control in the assay, a similar vector was generated in which the GAL4-DBD was fused to Herpes simplex virus protein 16 (VP16), a constitutive transcriptional activator.
To monitor the inhibitory effect of compounds on RORγ, a transcriptional reporter construct was used. The pGL4.35 vector (Promega) contains nine copies of the GAL4 Upstream Activator Sequence (UAS). This sequence drives the transcription of the luciferase reporter gene luc2P in response to binding of a fusion protein containing the GAL4 DNA binding domain, as for example expressed by the GAL4-RORγ-LBD and GAL4-VP16 expression vectors described above. To allow a GAL4 fusion protein to drive the expression of the luciferase reporter, the pGL4.35 expression vector and the appropriate GAL4 fusion protein expression vector were bulk transfected in the 293FT cells using standard transfection techniques.
The day after transfection, cells were plated into 96 well plates, test compound was added and the plates were incubated overnight. Subsequently, the firefly luciferase activity was quantified using luciferase detection reagent and luminescence readout.
Detailed Assay Description
293FT cells (Invitrogen) were transfected with a GAL4 fusion protein expression vector (as described above) and the transcriptional reporter construct (pGL4.35, Promega). 60 μL of TransIT-293 transfection reagent (Mirus Bio) was added drop wise to 1500 μl Opti-MEM I Reduced Serum Medium (Invitrogen) and incubated at room temperature (RT) for 5 to 20 minutes. 1500 μL of this reagent mixture was added to 5 μg of GAL4 fusion protein expression vector and 5 μg of the transcriptional reporter construct, and incubated at RT for 20 minutes.
To harvest 293FT cells from a T75 flask, first the culture medium was taken off the cells. Subsequently, the cells were washed with Phosphate Buffered Saline (PBS) (Lonza), after which the PBS was removed. To dissociate the cells, 1 ml of TrypLE Express (Invitrogen) was added to the flask, followed by incubation at RT until the cells visually started to detach. Cells were collected in 5 mL of assay medium (DMEM culture medium (Lonza), 10% dialyzed FBS (Invitrogen) and Pen/Strep (Lonza)) to achieve a single cell suspension. 10×10^6 cells were spun down and re-suspended in 10 mL of assay medium. Subsequently, the cell suspension was added to the transfection mix tube, and then transferred as a whole to a T75 flask (Greiner), followed by overnight (16-24 hours) incubation at 37° C. and 5% CO2.
For compound screening, the cells were harvested (as described above) and counted. 13×10^6 cells were spun down, the supernatant was aspirated and the cells were re-suspended in 17.3 mL of assay medium obtaining a cell suspension of 0.75×10^6 cells/mL. 80 μL of cell suspension (60,000 cells) was plated per well into a white, flat bottom, tissue culture treated, 96 well screening plates (Greiner).
Test compounds were diluted, starting from a 10 mM dimethylsulfoxide (DMSO) stock solution, to serial dilutions in DMSO at 500× the final test concentration. Subsequently, these solutions were diluted to 5× the final test concentration in two 10-fold-dilution steps in assay medium. The final DMSO concentration of the 5× test compound solution was 1%. […]

Row | Structure (SMILES) | IC50 [nM]
1 | COc1ccccc1N(C)C(=O)c1ccc(NC(=O)Cc2ccc(S(=O)(=O)CC3CC3)cc2)cc1Cl [Example 125, 2-chloro-4-[2-(4-cyclopropylmethanesulfonylphenyl)acetamido]-N-(2-methoxyphenyl)-N-methylbenzamide] | ≤ 10
2 | CC1CCCCN1C(=O)c1ccc(NC(=O)Cc2ccc(S(=O)(=O)CC3CC3)cc2)cc1 (stereo not shown) [Example 28, 2-(4-cyclopropylmethanesulfonylphenyl)-N-[4-(2-methylpiperidine-1-carbonyl)phenyl]acetamide] | ≤ 1000
3 | CCN(C(=O)c1ccc(NC(=O)Cc2ccc(S(=O)(=O)CC3CC3)cc2)cc1)c1c(C)noc1C [Example 108, 4-[2-(4-cyclopropylmethanesulfonylphenyl)acetamido]-N-(dimethyl-1,2-oxazol-4-yl)-N-ethyl-benzamide] | ≤ 100
4 | CCCCN(C(=O)c1ccc(NC(=O)Cc2ccc(S(=O)(=O)CC3CC3)cc2)cc1)c1nccs1 [Example 82, N-butyl-4-[2-(4-cyclopropylmethanesulfonylphenyl)acetamido]-N-(1,3-thiazol-2-yl)benzamide] | ≤ 100
5 | CCCN(C(=O)c1ccc(NC(=O)Cc2ccc(S(=O)(=O)CC3CC3)cc2)cc1)c1nccs1 [Example 83, 4-[2-(4-cyclopropylmethanesulfonylphenyl)acetamido]-N-propyl-N-(1,3-thiazol-2-yl)benzamide] | ≤ 10
6 | CCN(C(=O)c1ccc(NC(=O)Cc2ccc(S(=O)(=O)NC3CC3)cc2)cc1)c1cc(C)no1 [Example 95, 4-{2-[4-(cyclopropylsulfamoyl)phenyl]acetamido}-N-ethyl-N-(3-methyl-1,2-oxazol-5-yl)benzamide] | ≤ 100
7 | O=C(Cc1ccc(S(=O)(=O)CC2CC2)cc1)Nc1ccc(C(=O)N[C@H](c2ccc(Cl)cc2)C(F)(F)F)cc1 [Example 76, N-[(1R)-1-(4-chlorophenyl)-2,2,2-trifluoroethyl]-4-[2-(4-cyclopropylmethanesulfonylphenyl)acetamido]benzamide] | ≤ 1000
8 | O=C(Cc1ccc(S(=O)(=O)NC2CC2)cc1)Nc1ccc(C(=O)N(Cc2ccccc2)Cc2ccccc2)cc1 [Example 24, N,N-dibenzyl-4-{2-[4-(cyclopropylsulfamoyl)phenyl]acetamido}benzamide] | ≤ 100
9 | CC(C)[C@@H](NC(=O)c1ccc(NC(=O)Cc2ccc(S(=O)(=O)CC3CC3)cc2)cc1)C(F)(F)F [Example 69, 4-[2-(4-cyclopropylmethanesulfonylphenyl)acetamido]-N-[(2R)-1,1,1-trifluoro-3-methylbutan-2-yl]benzamide] | ≤ 1000
10 | CCOC(=O)c1csc(C2CCCN2C(=O)c2ccc(NC(=O)Cc3ccc(S(=O)(=O)CC4CC4)cc3)cc2)n1 (stereo not shown) [Example 38, ethyl 2-(1-{4-[2-(4-cyclopropylmethanesulfonylphenyl)acetamido]benzoyl}pyrrolidin-2-yl)-1,3-thiazole-4-carboxylate] | ≤ 1000
11 | CCN(C(=O)c1ccc(NC(=O)Cc2ccc(S(=O)(=O)CC3CC3)cc2)cc1)c1cc(C)nn1C [Example 88, 4-[2-(4-cyclopropylmethanesulfonylphenyl)acetamido]-N-(1,3-dimethyl-1H-pyrazol-5-yl)-N-ethylbenzamide] | ≤ 10
12 | O=C(Cc1ccc(S(=O)(=O)NC2CC2)cc1)Nc1ccc(C(=O)N2CCCCC2c2ccccc2)cc1 (stereo not shown) [Example 66, 2-[4-(cyclopropylsulfamoyl)phenyl]-N-[4-(2-phenylpipendine-1-carbonyl)phenyl]acetamide] | ≤ 100
13 | CCN(C(=O)c1ccc(NC(=O)Cc2ccc(S(=O)(=O)NC3CC3)cc2)c(C)c1)c1ccccc1 [Example 106, 4-{2-[4-(cyclopropylsuIfamoyl)phenyl]acetamido}-N-ethyl-3-methyl-N-phenylbenzamide] | ≤ 1000
14 | CCN(C(=O)c1ccc(NC(=O)Cc2ccc(S(=O)(=O)CC3CC3)cc2)cc1Cl)c1ccccc1C [Example 129, 2-chloro-4-[2-(4-cyclopropylmethanesulfonylphenyl)acetamido]-N-ethyl-N-(2-methylphenyl)benzamide] | ≤ 10
15 | CCN(C(=O)c1ccc(NC(=O)Cc2ccc(S(=O)(=O)CC3CC3)cc2)cc1)c1cc(C)no1 [Example 94, 4-[2-(4-cyclopropylmethanesulfonylphenyl)acetamido]-N-ethyl-N-(3-methyl-1,2-oxazol-5-yl)benzamide] | ≤ 10

Next, values leading:

Row | IC50 [nM] | Structure (SMILES)
16 | ≤ 10 | COC(=O)C(C)(C)N(C(=O)c1ccc(NC(=O)Cc2ccc(S(=O)(=O)CC3CC3)cc2)cc1)c1ccccc1 [Example 145, methyl 2-(1-{4-[2-(4-cyclopropylmethanesulfonylphenyl)acetamido]phenyl}-N-phenylformamido)-2-methylpropanoate]
17 | ≤ 10 | CCCN(C(=O)c1ccc(NC(=O)Cc2ccc(S(=O)(=O)CC3CC3)cc2)cc1)c1ccsc1 [Example 81, 4-[2-(4-cyclopropylmethanesulfonylphenyl)acetamido]-N-propyl-N-(thiophen-3-yl)benzamide]
18 | ≤ 100 | CCN(C(=O)c1ccc(NC(=O)Cc2ccc(S(=O)(=O)CC3CC3)cc2)cc1)c1cccnc1 [Example 52, 4-[2-(4-cyclopropylmethanesulfonylphenyl)acetamido]-N-ethyl-N-(pyridin-3-yl) benzamide]
19 | ≤ 100 | CCN(C(=O)c1ccc(NC(=O)Cc2ccc(S(=O)(=O)CC3CC3)cc2)cc1)c1cccc(C(=O)OC)c1 [Example 30, methyl 3-{N-ethyl-4-[2-(4-cyclopropylmethanesulfonylphenyl)acetamido]benzamido}benzoate]
20 | ≤ 10 | CCN(C(=O)c1ccc(NC(=O)Cc2ccc(S(=O)(=O)CC3CC3)cc2)cc1)c1ccc(C)cc1 [Example 29, 4-[2-(4-cyclopropylmethanesulfonylphenyl)acetamido]-N-ethyl-N-(4-methylphenyl)benzamide]
21 | ≤ 10 | O=C(Cc1ccc(S(=O)(=O)CC2CC2)cc1)Nc1ccc(C(=O)N(c2ccccc2)C2CCC2)cc1 [Example 141, N-cyclobutyl-4-[2-(4-cyclopropylmethanesulfonylphenyl)acetamido]-N-phenylbenzamide]
22 | ≤ 10 | CC(C)CN(C(=O)c1ccc(NC(=O)Cc2ccc(S(=O)(=O)CC3CC3)cc2)cc1)c1ccccc1 [Example 37, 4-[2-(4-cyclopropylmethanesulfonylphenyl)acetamido]-N-(2-methylpropyl)-N-phenylbenzamide]
23 | ≤ 100 | C[C@@H](c1ccccc1)N(C)C(=O)c1ccc(NC(=O)Cc2ccc(S(=O)(=O)CC3CC3)cc2)cc1 [Example 18, 4-[2-(4-cyclopropylmethanesulfonylphenyl)acetamido]-N-methyl-N-[(1S)-1-phenylethyl]benzamide]
24 | ≤ 100 | O=C(Cc1ccc(S(=O)(=O)CC2CC2)cc1)Nc1ccc(C(=O)N2CCc3ccccc3C2)cc1 [Example 55, 2-(4-cyclopropylmethanesulfonylphenyl)-N-[4-(1,2,3,4-tetrahydroisoquinoline-2-carbonyl)phenyl]acetamide]
25 | ≤ 100 | CC(C)(C1CCCO1)N(C(=O)c1ccc(NC(=O)Cc2ccc(S(=O)(=O)CC3CC3)cc2)cc1)c1ccccc1 (stereo not shown) [Example 135, 4-[2-(4-cyclopropylmethanesulfonylphenyl)acetamido]-N-[2-(oxolan-2-yl)propan-2-yl]-N-phenylbenzamide]
